The test system of one experiment is AtNCED3. The experiment is described as follows: qRT-PCR transcript level in mannitol stressed plants: AtNCED3. It is filed as in vivo, Arabidopsis thaliana. Conditions: 10 and 33 μM, mannitol stress. Here is the method:
For each condition to be tested, three hundred wild-type Arabidopsis thaliana Col-0 seeds (LEHLE) were sterilized, vernalized and sewn onto 200 mL of Sunshine Mix #3 (Sun Gro) potting material in an 8×8×4 cm pot. Plants were watered continuously with 25 g/100 mL of 20-20-20 (PlantProdTM) fertilizer and grown at 22° C. with a 16 hour photoperiod for 22 days. Plants were pre-treated with 50 mL/pot of Buffer A (10 mM HEPES pH 6.5) (Sigma)+/-10 or 33 μM test compound for 2 hours. Plants were then soaked with 50 mL/pot of Buffer A containing 0.4 M mannitol (Sigma)+/-10 or 33 μM test compound. Non-treated/non-stressed control plants were simply soaked in Buffer A at the designated time points. Aerial plant tissue was harvested after 6, 12 and 48 hours from the time of initial inhibitor treatment and flash frozen in liquid nitrogen. Half of the tissue samples were lyophilized for metabolite profiling and the other half taken for quantitative reverse-transcription polymerase chain reaction (qRT-PCR) analysis. […] The resulting mRNA was quantified and checked for quality using a Nano-DropTM ND-1000 Spectrophotometer. QuantiTectTM Reverse Transcription Kit (Qiagen) was used to produce cDNA as directed by the manufacturer from 20 ng of starting mRNA. Quantitative PCR was performed on 1 μL of cDNA product using a Bio-Rad iCyclerTM and the QuantiTectTM SYBR Green PCR Kit (Qiagen) coupled with QuantiTectTM Primer Assays (Qiagen) for the gene targets; […]-112304), Rd29B (NM-124609), CYP707A1 (NM-118043), CYP707A3 (NM-123902) and UBQ10 (NM-178968). The pre-validated primer sets are as follows indicated by the GeneGlobe (www1.qiagen.com/GeneGlobe/default.aspx) product name and (catalogue number): At_NCED3-1_SG (QT00769573), At_RD29B-1_SG (QT00840399), At_CYP707A1-1_SG (QT00808339), At_CYP707A3-1_SG (QT00739242), At_UBQ10_va.1_SG (QT01123745). Relative changes in transcript level were normalized using UBQ10 and quantified as previously described.^41
(In qPCR the cycle at which signal appears reflects the starting amount.)

For a further experiment, the system named is Rd29B. The experiment is described as follows: qRT-PCR transcript level in mannitol stressed plants: Rd29B. It is filed as in vivo, Arabidopsis thaliana. Conditions: 10 and 33 μM, 6 hours post-compound treatment, normalized to UBQ10. Here is the method: (§1) For each condition to be tested, three hundred wild-type Arabidopsis thaliana Col-0 seeds (LEHLE) were sterilized, vernalized and sewn onto 200 mL of Sunshine Mix #3 (Sun Gro) potting material in an 8×8×4 cm pot. Plants were watered continuously with 25 g/100 mL of 20-20-20 (PlantProdTM) fertilizer and grown at 22° C. with a 16 hour photoperiod for 22 days. Plants were pre-treated with 50 mL/pot of Buffer A (10 mM HEPES pH 6.5) (Sigma)+/-10 or 33 μM test compound for 2 hours. Plants were then soaked with 50 mL/pot of Buffer A containing 0.4 M mannitol (Sigma)+/-10 or 33 μM test compound. Non-treated/non-stressed control plants were simply soaked in Buffer A at the designated time points. Aerial plant tissue was harvested after 6, 12 and 48 hours from the time of initial inhibitor treatment and flash frozen in liquid nitrogen. Half of the tissue samples were lyophilized for metabolite profiling and the other half taken for quantitative reverse-transcription polymerase chain reaction (qRT-PCR) analysis. […] The resulting mRNA was quantified and checked for quality using a Nano-DropTM ND-1000 Spectrophotometer. QuantiTectTM Reverse Transcription Kit (Qiagen) was used to produce cDNA as directed by the manufacturer from 20 ng of starting mRNA. […] Relative changes in transcript level were normalized using UBQ10 and quantified as previously described.^41

Another experiment deals with CYP707A3. The experiment is described as follows: qRT-PCR transcript level in mannitol stressed plants: CYP707A3. Type of experiment: in vivo, Arabidopsis thaliana. Conditions: 10 and 33 μM, 6 hours post-compound treatment, normalized to UBQ10. Here is the method:
as §1

The test system of experiment [1] is ABA and catabolites in Arabidopsis thaliana Col-0 plants. The experiment is described as follows: Total ABA metabolite levels in mannitol stressed plants treated with SLCCD inhibitors. It is filed as in vivo. The note with it: for effect on ABA and catabolite pools under osmotic stress, compared with 13 (in words): whole time course. Here is the method: For each condition to be tested, three hundred wild-type Arabidopsis thaliana Col-0 seeds (LEHLE) were sterilized, vernalized and sewn onto 200 mL of Sunshine Mix #3 (Sun Gro) potting material in an 8×8×4 cm pot. Plants were watered continuously with 25 g/100 mL of 20-20-20 (PlantProd™) fertilizer and grown at 22° C. with a 16 hour photoperiod for 22 days. Plants were pre-treated with 50 mL/pot of Buffer A (10 mM HEPES pH 6.5) (Sigma)+/−10 or 33 μM test compound for 2 hours. Plants were then soaked with 50 mL/pot of Buffer A containing 0.4 M mannitol (Sigma)+/−10 or 33 μM test compound. Non-treated/non-stressed control plants were simply soaked in Buffer A at the designated time points. […] Half of the tissue samples were lyophilized for metabolite profiling and the other half taken for quantitative reverse-transcription polymerase chain reaction (qRT-PCR) analysis.
Freeze-dried tissue was homogenized using a multi-tube ball mill (Mini-BeadBeater-96™, Biospec Products Inc., Bartlesville, Okla., USA) and 50 mg of each sample was weighed out into individual Falcon tubes. To each sample, 100 μL of a cocktail of internal standards comprised of (−)-5,8′,8′,8′-d4-ABA, (−)-7′,7′,7′-d3-PA, (−)-5,8′,8′,8′-d4-7′OH ABA, (−)-7′,7′,7′-d3-DPA and (+)-4,5,8′,8′,8′-d5-ABAGE, each at a concentration of 0.2 ng/μL and dissolved in a mixture of water:acetonitrile (1:1, v/v) with 0.5% glacial acetic acid, was added. Further, 3 mL of isopropanol:water:glacial acetic acid (80:19:1, v/v/v) extraction solvent was added, and samples were placed in the fridge (4° C., in the dark) on an orbital shaker at about 350 rpm. After 18-24 hours, the samples were centrifuged at 4.4 krpm for 10 min, the supernatant was transferred to a disposable culture tube, and a second portion of 500 μL extraction solvent mixture was added to wash the pellet. After vortexing and centrifuging again at 4.4 krpm for 10 min, each wash was combined with its appropriate supernatant. The organic extract was dried under reduced pressure, then re-dissolved in 100 μL methanol:glacial acetic acid (99:1, v/v) followed by 900 μL of aqueous 1% glacial acetic acid. This mixture was extracted with 2 mL hexane, and then the aqueous layer was dried down under reduced pressure. The sample was further reconstituted in 2 mL aqueous 1% glacial acetic acid and loaded onto an Oasis MCX SPE cartridge (3 cc, Waters Corporation, Mississauga, Ontario, Canada). After a wash with 3 mL aqueous 1% glacial acetic acid, samples were eluted with 1 mL methanol:glacial acetic acid (99:1, v/v) and then dried down under reduced pressure. The extract was re-dissolved in 100 μL methanol:glacial acetic acid (99:1, v/v) followed by 900 μL of aqueous 1% glacial acetic acid. This mixture was further cleaned on an Oasis HLB SPE cartridge (1 cc, Waters Corporation, Mississauga, Ontario, Canada). After a wash with 1 mL aqueous 1% glacial acetic acid, the fraction containing ABA and ABA metabolites was eluted with 1 mL acetonitrile:water:glacial acetic acid (30:69:1, v/v/v) and then was evaporated to dryness. The final residue was dissolved in 200 μL of acetonitrile:water (15:85, v/v) containing 0.1% glacial acetic acid and 100 pg/μL (±)-3′,5′,5′,7′,7′,7′-d6-ABA as a recovery standard. Finally, the sample was subjected to LC-ES-MS/MS analysis and quantification, as described in Owen and Abrams, 2008.^39

The test system of a further experiment is CYP707A1. The experiment is described as follows: qRT-PCR transcript level in mannitol stressed plants: CYP707A1. It is filed as in vivo, Arabidopsis thaliana. The note with it: 10 and 33 μM, 6 hours post-compound treatment, normalized to UBQ10. Here is the method: as §1
[2] abbreviates: 33 μM inhibitor, mannitol stress.

Regarding `CCSCC=C(C)C#CC1(O)C(C)CC(=O)CC1(C)C` (racemic) [Compound 13, (4S,5R/4R,5S)-(3′Z)-4-(5′-(Ethylthio)-3′-methylpent-3′-en-1′-ynyl)-4-hydroxy-3,3,5-trimethylcyclohexanone], in the experiment with AtNCED3, the “relative expression level of AtNCED3 in mannitol stressed plants (in words)” value (“relative expression level of AtNCED3” for short) was “decrease the relative expression levels of AtNCED3”. In addition, in the experiment on Rd29B, the “inhibition of mannitol-induced Rd29b transcription” value is reported as “about 90%”. Also, in the experiment on CYP707A3, the “CYP707A3 mRNA transcript level vs mannitol-stressed control (in words)” value is recorded as “reductions in the accumulation of mRNA transcript levels”. Moreover, the “total levels of ABA and catabolites” value in experiment [1] (33 μM inhibitor 2 h before and during 0.4 M mannitol stress, 24 hours, mannitol only 15147 pmol/g) was 8211 pmol/g. Besides, the “levels of ABA and catabolites at first time point (in words)” value in experiment [1] (33 μM inhibitor, mannitol stress, first 6 hours) is given as “comparable to those of the non-treated/non-stressed control plants”. Also, the “CYP707A1 mRNA transcript level vs mannitol-stressed control (in words)” value in the experiment with CYP707A1 was “reductions in the accumulation of mRNA transcript levels”.

For the compound `C/C(C#C[C@@]12O[C@]1(C)C[C@@H](O)CC2(C)C)=C/CSc1ccccc1` [Compound 17, (1R,3S,6R)-(3′Z)-1,5,5-Trimethyl-6-(3′-methyl-5′-(phenylthio)-pent-3′-en-1′-ynyl)-7-oxa-bicyclo[4.1.0]heptan-3-ol], the “relative expression level of AtNCED3” value in the experiment on AtNCED3 is reported as “similar, although not as pronounced effects”. The “effect on ABA and catabolite pools under osmotic stress, compared with 13 (in words)” value in experiment [1] (setting [2]) is “less effective than 13”.

As to `C/C(C#C[C@@]12O[C@]1(C)C[C@@H](O)CC2(C)C)=C/CNc1ccccc1` [Compound 18, (1R,3S,6R)-(3′Z)-1,5,5-Trimethyl-6-(3′-methyl-5′-(phenylamino)-pent-3′-en-1-ynyl)-7-oxabicyclo[4.1.0]heptan-3-ol], in the experiment with AtNCED3, the “relative expression level of AtNCED3” value is on record as “similar, although not as pronounced effects”. For the same compound, in experiment [1] (setting [2]), the “effect on ABA and catabolite pools under osmotic stress, compared with 13 (in words)” value was “less effective than 13”.
